In paper PMC7865522, “Analyzing Kinase Similarity in Small Molecule and Protein Structural Space to Explore the Limits of Multi-Target Screening” (Molecules, 2021):

Assays:
PI3K [1] = molecular target: T1, PI3K (Homo sapiens, UniProt P42336); assay: DiscoverX KINOMEscan competition binding assay; parameters: purchased DiscoverX (KINOMEscan service); host or cells: E. coli BL21-derived host (T7 phage) or HEK-293; conditions: compound 10 µM; lower values = higher affinity; below 35% = significant binding
Protocol: (§1) Ligand binding experiments for the molecules selected from Profiles 1 and 2 towards nine kinases (EGFR, ErbB2, LCK, CDK2, BRAF, MET, p38α, PI3K and VEGFR2) and for molecules selected from Profiles 3 and 4 towards four kinases (EGFR, ErbB2, BRAF and VEGFR2) were carried out by DiscoverX using the supplied protocol as described in the Supplementary Materials. Briefly, ligand affinity was measured by competition with a resin-bound standard ligand and washed-off kinase concentration was determined via qPCR.
(§2) Summarizing, binding of a compound to a kinase was tested in comparison to a control compound (see Table S2). […]
(§3) 1.1. DiscoverX kinase assay
(§4) For most assays, kinase-tagged T7 phage strains were grown in parallel in 24-well blocks in an E.coli host derived from the BL21 strain. E.coli were grown to log-phase and infected with T7 phage from a frozen stock (multiplicity of infection = 0.4) and incubated with shaking at 32°C until lysis (90-150 minutes). The lysates were centrifuged (6,000 x g) and ﬁltered (0.2µm) to remove cell debris.
(§5) The remaining kinases were produced in HEK-293 cells and subsequently tagged with DNA for qPCR detection. Streptavidin-coated magnetic beads were treated with biotinylated small molecule ligands for 30 minutes at room temperature to generate afﬁnity resins for the kinases. The liganded beads were blocked with excess biotin and washed with blocking buffer (SeaBlock [Pierce], 1% BSA, 0.05% Tween 20, 1 mM DTT) to remove unbound ligands and to reduce non-speciﬁc phage binding. Binding reactions were assembled by combining kinases, liganded afﬁnity beads, and test compounds in 1x binding buffer (20% SeaBlock, 0.17x PBS, 0.05% Tween 20, 6 mM DTT). Test compounds were prepared as 40x stocks in 100% DMSO and directly diluted into the assay. All reactions were performed in polypropylene 384-well plates in a ﬁnal volume of 0.02 ml. The assay plates were incubated at room temperature with shaking for 1 hour and the afﬁnity beads were washed with wash buffer (1x PBS, 0.05% Tween 20). The beads were then re-suspended in elution buffer (1x PBS, 0.05% Tween 20, 0.5 µM non-biotinylated afﬁnity ligand) and incubated at room temperature with shaking for 30 minutes. The kinase concentration in the eluates was measured by qPCR. […]
(§6) Table S2. Experimental % control values from the DiscoverX kinase assay. Compounds were tested against the nine kinases EGFR, ErbB2, LCK, CDK2, BRAF, MET, p38α, PI3K and VEGFR2, unless otherwise stated. Binding of kinase and compound were tested at a compound concentration of 10 µM and in comparison to a control compound. Lower values indicate a higher afﬁnity of the compound to the protein and values below 35% indicate signiﬁcant binding according to information of the CRO. […]
(§7) a Compounds were only tested against four kinases (EGFR, ErbB2, BRAF and VEGFR2). b Compound was selected independently from two docking proﬁles and tested separately during
Target sequence in this assay (P42336 whole entry): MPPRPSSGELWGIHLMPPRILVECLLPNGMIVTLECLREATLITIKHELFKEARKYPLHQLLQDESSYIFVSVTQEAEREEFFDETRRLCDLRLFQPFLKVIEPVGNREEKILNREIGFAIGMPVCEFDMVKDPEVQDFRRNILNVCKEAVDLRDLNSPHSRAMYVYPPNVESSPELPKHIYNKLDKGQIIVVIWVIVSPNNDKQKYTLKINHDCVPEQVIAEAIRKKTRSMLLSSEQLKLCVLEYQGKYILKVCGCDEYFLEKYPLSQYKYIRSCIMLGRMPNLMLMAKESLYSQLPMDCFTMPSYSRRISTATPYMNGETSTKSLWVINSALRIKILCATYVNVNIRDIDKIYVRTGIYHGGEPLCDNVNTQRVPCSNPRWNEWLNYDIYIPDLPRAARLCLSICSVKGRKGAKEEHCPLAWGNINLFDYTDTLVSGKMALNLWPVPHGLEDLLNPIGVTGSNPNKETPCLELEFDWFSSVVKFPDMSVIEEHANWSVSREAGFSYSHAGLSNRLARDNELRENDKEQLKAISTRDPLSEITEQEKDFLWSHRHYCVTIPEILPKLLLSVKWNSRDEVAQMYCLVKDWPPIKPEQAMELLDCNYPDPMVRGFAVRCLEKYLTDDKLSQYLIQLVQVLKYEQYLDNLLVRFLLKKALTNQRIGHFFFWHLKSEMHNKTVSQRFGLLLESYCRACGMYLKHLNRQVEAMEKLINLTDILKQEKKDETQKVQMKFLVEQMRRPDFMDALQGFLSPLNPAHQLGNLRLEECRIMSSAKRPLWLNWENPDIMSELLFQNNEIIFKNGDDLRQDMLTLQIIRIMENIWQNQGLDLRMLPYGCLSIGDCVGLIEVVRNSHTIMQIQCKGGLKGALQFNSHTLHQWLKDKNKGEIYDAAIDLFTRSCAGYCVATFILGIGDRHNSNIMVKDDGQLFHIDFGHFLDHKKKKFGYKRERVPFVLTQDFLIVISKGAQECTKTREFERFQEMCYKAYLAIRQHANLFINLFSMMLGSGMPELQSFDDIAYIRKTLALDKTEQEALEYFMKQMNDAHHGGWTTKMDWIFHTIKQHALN

MET = molecular target: T2, MET (Homo sapiens, UniProt P08581); assay: DiscoverX KINOMEscan competition binding assay; conditions: compound 10 µM; lower values = higher affinity; below 35% = significant binding
T2 construct: purchased DiscoverX (KINOMEscan service); host or cells: E. coli BL21-derived host (T7 phage) or HEK-293
Protocol: as §1, §2, §3, §4, §5, §6, §7

VEGFR2 = molecular target: T3, VEGFR2 (Homo sapiens, UniProt P35968); assay: DiscoverX KINOMEscan competition binding assay; conditions: compound 10 µM, lower values = higher affinity, below 35% = significant binding
T3 construct: purchased DiscoverX (KINOMEscan service); host or cells: E. coli BL21-derived host (T7 phage) or HEK-293
Protocol: as §1, §2, §3, §4, §5, §6, §7

ErbB2 [2] = molecular target: T4, ErbB2 (Homo sapiens, UniProt P04626); assay: DiscoverX KINOMEscan competition binding assay; conditions: compound 10 µM, lower values = higher affinity, below 35% = significant binding
T4 construct: purchased DiscoverX (KINOMEscan service); host or cells: E. coli BL21-derived host (T7 phage) or HEK-293
Protocol: as §1, §2, §3, §4, §5, §6, §7

p38α = molecular target: T5, p38α (Homo sapiens, UniProt Q16539); assay: DiscoverX KINOMEscan competition binding assay; conditions: compound 10 µM; lower values = higher affinity; below 35% = significant binding
T5 construct: purchased DiscoverX (KINOMEscan service); host or cells: E. coli BL21-derived host (T7 phage) or HEK-293
Protocol: as §1, §2, §3, §4, §5, §6, §7

BRAF [3] = molecular target: T6, BRAF (Homo sapiens, UniProt P15056); assay: DiscoverX KINOMEscan competition binding assay; conditions: for % control, BRAF (DiscoverX): compound 10 µM, lower values = higher affinity, below 35% = significant binding
T6 construct: purchased DiscoverX (KINOMEscan service); host or cells: E. coli BL21-derived host (T7 phage) or HEK-293
Protocol: as §1, §2, §3, §4, §5, §6, §7

LCK = molecular target: T7, LCK (Homo sapiens, UniProt P06239); assay: DiscoverX KINOMEscan competition binding assay; conditions: compound 10 µM; lower values = higher affinity; below 35% = significant binding
T7 construct: purchased DiscoverX (KINOMEscan service); host or cells: E. coli BL21-derived host (T7 phage) or HEK-293
Protocol: as §1, §2, §3, §4, §5, §6, §7

CDK2 = molecular target: T8, CDK2 (Homo sapiens, UniProt P24941); assay: DiscoverX KINOMEscan competition binding assay; conditions: compound 10 µM; lower values = higher affinity; below 35% = significant binding
T8 construct: purchased DiscoverX (KINOMEscan service); host or cells: E. coli BL21-derived host (T7 phage) or HEK-293
Protocol: as §1, §2, §3, §4, §5, §6, §7

EGFR [4] = molecular target: T9, EGFR (Homo sapiens, UniProt P00533); assay: DiscoverX KINOMEscan competition binding assay; conditions: compound 10 µM; lower values = higher affinity; below 35% = significant binding
T9 construct: purchased DiscoverX (KINOMEscan service); host or cells: E. coli BL21-derived host (T7 phage) or HEK-293
Protocol: as §1, §2, §3, §4, §5, §6, §7

ErbB2 [5] = molecular target: T4, ErbB2; assay: Eurofins in vitro kinase inhibition assay; format: biochemical; conditions: compound 20 µM; mean (SD); above 50% significant, 25-50% weak
Protocol: (§8) Kinase inhibition assays for EGFR, ErbB2, PI3K and BRAF were carried out by Eurofins Cerep following the protocols of Weber et al. (EGFR), Quian et al. (ErbB2), Sinnamon et al. (PI3K) and Kupcho et al. (BRAF). Briefly, except for PI3K, compounds were incubated with the respective kinase, ATP, and a substrate analog, and the effect of each compound on phosphorylation was measured. In the case of PI3K, the displacement of biotinylated PIP3 from a PIP3-binding complex by unlabelled PIP3 (produced from PIP2 by PI3K) was measured by Homogeneous Time Resolved Fluorescence (HTRF).
(§9) Finally, inhibition of the respective kinases is calculated as the percentage inhibition of control activity.
(§10) Table S3. Experimental results from the Euroﬁns assay. Inhibition of four kinases (EGFR, PI3K, ErbB2, BRAF) was measured at compound concentrations of 20 µM. Inhibition was calculated as % inhibition of control activity. According to CRO, values above 50% inhibition represent signiﬁcant inhibition, values above 25% weak inhibition effect and values below 25% as well as negative values are usually not signiﬁcant. Results are reported in mean (SD) format. […]
(§11) a Compound interfered with assay readout.

BRAF [6] = molecular target: T6, BRAF; assay: Eurofins in vitro kinase inhibition assay; format: biochemical; conditions: compound 20 µM; mean (SD); above 50% significant, 25-50% weak
Protocol: as §8, §9, §10, §11

EGFR [7] = molecular target: T9, EGFR; assay: Eurofins in vitro kinase inhibition assay; format: biochemical; conditions: compound 20 µM; mean (SD); above 50% significant, 25-50% weak
Protocol: as §8, §9, §10, §11

PI3K [8] = molecular target: T1, PI3K; assay: Eurofins in vitro kinase inhibition assay (HTRF, PIP3 displacement); format: biochemical; parameters: purchased Eurofins Cerep (contract assay); conditions: compound 20 µM; mean (SD); above 50% significant, 25-50% weak
Protocol: as §8, §9, §10, §11

T2 sequence (P08581 25-1390): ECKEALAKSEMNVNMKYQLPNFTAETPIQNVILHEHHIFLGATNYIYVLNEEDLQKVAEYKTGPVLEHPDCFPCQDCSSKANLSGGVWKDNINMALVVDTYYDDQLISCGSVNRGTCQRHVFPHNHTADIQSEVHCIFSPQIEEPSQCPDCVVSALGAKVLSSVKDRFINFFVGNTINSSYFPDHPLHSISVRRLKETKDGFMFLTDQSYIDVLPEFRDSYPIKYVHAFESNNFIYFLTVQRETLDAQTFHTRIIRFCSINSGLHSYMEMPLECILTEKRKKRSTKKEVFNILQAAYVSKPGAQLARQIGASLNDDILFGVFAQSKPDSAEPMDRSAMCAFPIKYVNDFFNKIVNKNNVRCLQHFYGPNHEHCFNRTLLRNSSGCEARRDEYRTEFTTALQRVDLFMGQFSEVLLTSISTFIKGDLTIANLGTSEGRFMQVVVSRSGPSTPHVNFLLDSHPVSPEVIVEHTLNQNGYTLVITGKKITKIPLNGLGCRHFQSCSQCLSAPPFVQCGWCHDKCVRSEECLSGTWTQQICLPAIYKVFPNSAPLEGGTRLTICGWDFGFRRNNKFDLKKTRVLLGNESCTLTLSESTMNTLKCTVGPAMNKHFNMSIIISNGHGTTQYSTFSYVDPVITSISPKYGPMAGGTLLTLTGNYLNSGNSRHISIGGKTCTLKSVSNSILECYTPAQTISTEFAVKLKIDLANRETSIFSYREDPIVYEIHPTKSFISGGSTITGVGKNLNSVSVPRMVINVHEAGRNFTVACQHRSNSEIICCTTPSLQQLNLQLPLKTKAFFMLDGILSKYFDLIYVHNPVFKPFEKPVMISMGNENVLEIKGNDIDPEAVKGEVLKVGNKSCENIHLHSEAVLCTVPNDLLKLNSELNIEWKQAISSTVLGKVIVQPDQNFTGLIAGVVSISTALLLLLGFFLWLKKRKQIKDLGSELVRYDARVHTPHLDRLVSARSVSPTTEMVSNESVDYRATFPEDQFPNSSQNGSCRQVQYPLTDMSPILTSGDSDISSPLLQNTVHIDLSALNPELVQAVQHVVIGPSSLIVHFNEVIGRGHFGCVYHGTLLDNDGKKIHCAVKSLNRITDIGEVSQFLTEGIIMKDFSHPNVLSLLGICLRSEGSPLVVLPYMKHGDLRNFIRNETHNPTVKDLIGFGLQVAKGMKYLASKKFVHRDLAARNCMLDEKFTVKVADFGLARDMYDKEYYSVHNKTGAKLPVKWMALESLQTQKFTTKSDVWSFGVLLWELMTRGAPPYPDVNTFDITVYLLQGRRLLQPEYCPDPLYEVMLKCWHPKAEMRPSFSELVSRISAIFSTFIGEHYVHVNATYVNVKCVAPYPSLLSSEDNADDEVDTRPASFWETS
T6 sequence (P15056 whole entry): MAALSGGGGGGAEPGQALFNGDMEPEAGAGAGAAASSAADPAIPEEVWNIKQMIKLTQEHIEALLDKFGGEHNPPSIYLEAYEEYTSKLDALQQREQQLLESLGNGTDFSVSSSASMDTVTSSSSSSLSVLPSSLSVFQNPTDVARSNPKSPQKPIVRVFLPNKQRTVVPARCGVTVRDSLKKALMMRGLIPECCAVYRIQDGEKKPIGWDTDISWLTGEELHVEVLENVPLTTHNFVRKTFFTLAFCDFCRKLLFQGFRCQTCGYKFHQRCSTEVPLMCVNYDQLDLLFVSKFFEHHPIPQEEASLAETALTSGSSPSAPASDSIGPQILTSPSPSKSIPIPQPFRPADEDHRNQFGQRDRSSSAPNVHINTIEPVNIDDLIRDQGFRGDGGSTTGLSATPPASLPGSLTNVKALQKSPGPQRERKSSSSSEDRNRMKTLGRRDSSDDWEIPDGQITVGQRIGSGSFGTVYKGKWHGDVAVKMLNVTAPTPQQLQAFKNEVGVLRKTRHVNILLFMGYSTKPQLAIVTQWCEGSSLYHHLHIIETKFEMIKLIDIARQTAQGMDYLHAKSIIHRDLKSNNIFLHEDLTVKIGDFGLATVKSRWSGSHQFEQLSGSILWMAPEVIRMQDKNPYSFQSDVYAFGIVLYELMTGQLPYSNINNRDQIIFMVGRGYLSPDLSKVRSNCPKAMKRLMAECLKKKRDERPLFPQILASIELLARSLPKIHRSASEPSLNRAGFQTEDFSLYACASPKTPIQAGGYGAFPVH
T9 sequence (P00533 25-1210): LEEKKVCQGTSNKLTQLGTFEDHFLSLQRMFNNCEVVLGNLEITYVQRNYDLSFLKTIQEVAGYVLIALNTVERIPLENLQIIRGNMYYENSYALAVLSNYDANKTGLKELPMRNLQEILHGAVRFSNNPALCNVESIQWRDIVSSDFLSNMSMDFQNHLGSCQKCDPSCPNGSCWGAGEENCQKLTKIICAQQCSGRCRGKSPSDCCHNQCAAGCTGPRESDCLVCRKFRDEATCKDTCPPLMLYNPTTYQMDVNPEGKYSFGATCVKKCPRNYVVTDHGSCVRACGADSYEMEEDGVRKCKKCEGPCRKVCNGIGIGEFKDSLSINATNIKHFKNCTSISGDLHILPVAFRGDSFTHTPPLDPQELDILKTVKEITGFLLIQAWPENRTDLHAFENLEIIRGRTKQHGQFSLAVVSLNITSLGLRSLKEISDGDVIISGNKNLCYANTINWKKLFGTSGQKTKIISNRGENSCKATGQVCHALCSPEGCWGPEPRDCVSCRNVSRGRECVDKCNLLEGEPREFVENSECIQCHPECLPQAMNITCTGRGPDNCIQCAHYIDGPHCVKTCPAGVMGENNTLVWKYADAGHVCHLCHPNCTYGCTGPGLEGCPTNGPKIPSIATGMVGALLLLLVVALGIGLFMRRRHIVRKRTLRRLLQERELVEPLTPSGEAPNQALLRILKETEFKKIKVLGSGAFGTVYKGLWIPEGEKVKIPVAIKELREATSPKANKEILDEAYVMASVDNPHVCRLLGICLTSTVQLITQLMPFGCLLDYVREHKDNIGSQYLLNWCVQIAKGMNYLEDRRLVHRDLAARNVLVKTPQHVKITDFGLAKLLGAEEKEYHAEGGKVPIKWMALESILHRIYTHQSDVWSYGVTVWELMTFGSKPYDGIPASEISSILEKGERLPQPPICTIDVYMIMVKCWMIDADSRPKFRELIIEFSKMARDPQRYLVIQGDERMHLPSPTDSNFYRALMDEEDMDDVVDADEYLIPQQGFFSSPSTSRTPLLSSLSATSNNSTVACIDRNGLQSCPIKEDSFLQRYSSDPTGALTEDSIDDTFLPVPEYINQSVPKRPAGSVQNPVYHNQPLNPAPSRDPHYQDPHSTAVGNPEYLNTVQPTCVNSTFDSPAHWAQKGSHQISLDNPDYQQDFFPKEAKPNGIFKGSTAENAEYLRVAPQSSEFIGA
T5 sequence (Q16539 whole entry): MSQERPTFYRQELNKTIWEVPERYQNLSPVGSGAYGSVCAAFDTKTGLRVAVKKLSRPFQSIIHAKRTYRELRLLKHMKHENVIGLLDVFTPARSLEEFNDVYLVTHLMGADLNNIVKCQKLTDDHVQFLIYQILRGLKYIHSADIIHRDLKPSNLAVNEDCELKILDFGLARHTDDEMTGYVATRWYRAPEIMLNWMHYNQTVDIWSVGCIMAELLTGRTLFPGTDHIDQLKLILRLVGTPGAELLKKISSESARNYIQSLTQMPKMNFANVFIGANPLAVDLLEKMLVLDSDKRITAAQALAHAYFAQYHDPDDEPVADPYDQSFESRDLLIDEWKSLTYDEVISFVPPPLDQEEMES

SMILES	% control, PI3K (DiscoverX) (PI3K [1])	% control, MET (DiscoverX) (MET)	% control, VEGFR2 (DiscoverX) (VEGFR2)	% control, VEGFR2 (DiscoverX) (VEGFR2; listed as K001MM009)	% control, ErbB2 (DiscoverX) (ErbB2 [2])	% control, ErbB2 (DiscoverX) (ErbB2 [2]; listed as K001MM009)	% control, p38α (DiscoverX) (p38α)	% control, BRAF (DiscoverX) (BRAF [3])	% control, BRAF (DiscoverX) (BRAF [3]; listed as K001MM009)	% control, LCK (DiscoverX) (LCK)	% control, CDK2 (DiscoverX) (CDK2)	% control, EGFR (DiscoverX) (EGFR [4])	% inhibition of control activity, ErbB2 (Eurofins) (ErbB2 [5])	% inhibition of control activity, BRAF (Eurofins) (BRAF [6])	% inhibition of control activity, EGFR (Eurofins) (EGFR [7])	% inhibition of control activity, PI3K (Eurofins) (PI3K [8])	% ctrl. activity at 10 µM, BRAF (DiscoverX), printed as symbol (BRAF [3]; 10 µM, Table 3)
Cc1ccc(-n2cnnn2)cc1NC(=O)NCC1CC1 [DS44738]	94 % control	84 % control	100 % control	98 % control	91 % control	98 % control	100 % control	100 % control	96 % control	100 % control	100 % control	100 % control	10.5 (23.6) % inhibition	-20.8 (0.4) % inhibition	4.4 (14.0) % inhibition	0.4 (1.7) % inhibition	
COCCNC(=O)NC(C)Cc1ccc(O)cc1 (stereo not shown) [K001MM004]			100 % control		100 % control			100 % control				100 % control					
Cc1cc(COC(=O)c2cnc3c(cnn3Cc3ccccc3)c2)on1 [K001MM013]			90 % control		94 % control			100 % control				100 % control					
CCc1nccc(-c2nccn2C(Cn2cccn2)c2ccccc2)n1 (stereo not shown) [DS23815]	97 % control	99 % control	100 % control		100 % control		100 % control	99 % control		100 % control	99 % control	100 % control	-7.2 (5.7) % inhibition	-19.7 (2.4) % inhibition	10.7 (0.4) % inhibition		
CC1Oc2ccc(Nc3ncnc4c3oc3ccccc34)cc2NC1=O (stereo not shown) [K001MM011]			99 % control					100 % control									– ^d (percent control activity ≥ 99%, i.e., no measurable inhibition)
COCCCNC(=O)c1nc2c3c4c(sc3ncn2n1)CC[C@H](C)C4 [DS31939]	73 % control	100 % control	100 % control		100 % control		100 % control	100 % control		99 % control	100 % control	100 % control	-1.7 (0.8) % inhibition	-27.8 (10.8) % inhibition	9.6 (0.2) % inhibition		
CC(C)OCC(O)CN1CCN(C(=O)c2cccc(Cl)c2)CC1 (stereo not shown) [K001MM002]			100 % control		92 % control			89 % control				97 % control					
Nc1nc(N2CCC[C@H](Cc3nc4ccccc4[nH]3)C2)c2nc[nH]c2n1 [K001MM010]			97 % control		90 % control			100 % control				95 % control					
Cc1ccccc1Cn1cnc2c(nnn2-c2ccccc2)c1=O [K001MM003]			100 % control		99 % control			95 % control				99 % control					
Cc1cccc(NC(=O)N[C@H](C)[C@H](C)N2CCOCC2)n1 [K001MM007]			100 % control		94 % control			87 % control				90 % control					
CCOCC(C)(C)NC(=O)Nc1cc(F)ccc1OC [K001MM006]			100 % control		100 % control			100 % control				96 % control					
Cc1ccc(NC(=O)COC(=O)c2cc(=O)[nH]c3ccccc23)cc1 [K001MM012]			91 % control		100 % control			100 % control				90 % control					
CCCCn1nnnc1CN1CCc2nn(CC)c(=O)cc2C1 [K001MM005]			100 % control		100 % control			99 % control				100 % control					
